Results as given in patent publication US10655099B2, “Animal protein-free media for cultivation of cells” (Baxalta Incorporated, priority 2004, dated 2020).

Legend:
GD8/6 cells = details: 0-18 mg/L (as HCl salt) in BAV-medium with 0.25% soy hydrolysate vs unsupplemented 0.25% or 0.4% soy hydrolysate
Protocol: Small scale experiments with GD8/6 cells in suspension culture were carried in Techne spinner flasks at 200 ml working volume in batch refeed mode at 37° C., without pH and pO2 control.
The activity of Factor VIII (FVIII) (cf. FIGS. 1 to 5 and 9) was measured by a chromogenic assay (Chromogenic, Sweden).
The cell specific productivity is defined as the specific amount of produced protein (U or μg) per number of cells per day (cf. FIGS. 7 and 9) or as the specific amount of produced protein (U) produced per amount of D-glucose consumed by the cells (cf. FIG. 8).

Recombinant BHK cells = details: 0.25% (w/v) soy hydrolysate + 1.8 mg/L putrescine.2HCl vs 0.25% soy peptone alone; 3 days; EPO activity per glucose consumption
Protocol: Recombinant BHK cells were grown to confluence in 5% (v/v) fetal calf serum containing medium. The cells were washed with protein-free medium and incubated for 3 days in BAV medium supplemented with 0.25% (w/v) soy hydrolysate or 0.25% (w/v) soy hydrolysate+1.8 mg/L putrescine.2HCl (FIG. 8).

[1] = tested on: GD8/6 cells (CHO-cells stably expressing Factor VIII)
Protocol: (§1) Cell cultures of recombinant mammalian cells (e.g. CHO-cells stably expressing Factor VIII=GD8/6-cells) were grown in suspension in a chemostat culture in 10 l bioreactors. The culture conditions of 37° C., oxygen saturation 20% and pH 7.0 to 7.1 were kept constant. The cultures were supplied with a constant feed of BAV-medium as defined in Example 1 additionally supplemented with soy hydrolysates in the range of […] and/or addition of putrescine.2HCl in the range of 0-1 mg/L (cf. FIG. 1-5).
Cell counts from suspension cells or immobilized cells were determined either by counting with a CASY® cell counter as described by Schärfe et al., (Biotechnologie in LaborPraxis 10: 1096-1103 (1988)) or by citric acid extraction and fluorescent staining of the nuclei followed by counting with a NucleoCounter® (Chemometec, DK). The specific growth rate (μ) is calculated from the increase of the cell densities (X1) and/or the dilution rate (D) of the steady state of chemostat cultures of suspensions cells over a certain time interval (t): μ=D+In (Xt I X0)/t

[2] = tested on: GD8/6 cells (CHO-cells stably expressing Factor VIII); assay: Volumetric FVIII productivity of GD8/6 cells in chemostat culture (chromogenic FVIII assay); assay type: cell-based
Protocol: as §1
The volumetric productivity is calculated from the amount of activity units or antigen titers yielded per liter reactor volume per day (U/L/d or mg/L/d) in the respective production systems.

[3] = 0.25% (w/v) soy hydrolysate + 1 mg/L putrescine.2HCl
[4] = 0.25% (w/v) soy hydrolysate + 1 mg/L putrescine.2HCl vs 0.25% soy hydrolysate alone

Row | Compound | cell specific productivity (FVIII), change (GD8/6 cells) | increase in EPO productivity (Recombinant BHK cells) [%] | variation of specific growth rates between soy hydrolysate lots [1, 3] | specific growth rate, change [1, 4] | variation of volumetric FVIII-productivity between soy hydrolysate lots [2, 3] | volumetric and cell specific FVIII-productivity, change [2, 4] | volumetric productivity of FVIII, effect of addition ([2]; addition to BAV-medium with 0.25% (w/v) soy hydrolysate, due to increased cell specific FVIII productivity)
1 | NCCC[C@H](N)C(=O)O [ornithine] | significant increase |  |  |  |  |  | 
2 | NCCCCN [putrescine] | significant increase | 16 | only minor variations | increases | only minor variations | increases | over proportional increased
3 | NCCCNCCCCNCCCN [spermine] | significant increase |  |  |  |  |  | 
